The test relates to IL-6. Put plainly: LPS-induced IL-6 secretion in primary human monocyte-derived macrophages (ELISA). It is filed as cell-based. The settings on record: LPS 0.15 ng/mL, baseline subtracted. Here is the method: Unpurified buffy coats (Research Blood Components) were carefully poured into 50 mL centrifuge tubes and diluted with room temperature Dulbecco's Phosphate Buffered Saline (dPBS) with Calcium and Magnesium (Gibco). Diluted buffy coats were further divided into four total 50 mL centrifuge tubes at 20 mL per tube. Lymphocyte Separation Medium (Corning) was carefully pipetted to the bottom of each centrifuge tube. Mixtures were centrifuged at 850× g for 32 minutes at 20° C. with 0 deceleration and acceleration.
The PBMC layer was separated from other components after centrifugation and added to new 50 mL centrifuge tube containing 25 mL dPBS. Total volume was brought up to 50 mL with dPBS and centrifuged at 600×g for 10 minutes at 20° C. with acceleration of 9, deceleration of 5. Supernatant was carefully removed from cell pellets. The cell pellets were resuspended using 10 mL dPBS. Total volume was then brought up to 50 mL using dPBS and centrifuged at 450×g for 5 min at 20° C. with acceleration of 9, deceleration of 9. The supernatant removal and cell pellet resuspension was repeated again.
The supernatant was then carefully removed from cell pellets. Cell pellets were resuspended in 10 mL dPBS without calcium or magnesium and filtered through a 70 uM cell strainer. The total PBMC number was determined using a Cellometer K2 automated cell counter. A total of 5E6 cells were saved for flow cytometric analysis. Remaining cells were centrifuged at 490×g for 5 minutes at 20° C. with acceleration of 9, deceleration of 9.
CD14+ cells were selected using EasySep™ Human CD14 Positive Selection Kit II ([…] Technologies). Cells were resuspended in cold EasySep™ Buffer ([…] Technologies) at 1×10^8 cells/mL. A total of 100 uL/mL EasySep™ Human CD14 Positive Selection Cocktail II was added to the cell suspension, mixed, and incubated at room temperature for 10 minutes. A total of 100 uL/mL RapidSpheres were added to the mixture and incubated at room temperature for 3 minutes after mixing, then RoboSep buffer was added to bring up the total volume to 10 mL. The mixture in a 15 mL tube was placed in magnet and incubated at room temperature for 3 minutes. Supernatant was discarded and 10 mL fresh EasySep™ buffer was added to 15 mL tube. The addition of RoboSep buffer, mixing, and discarding of supernatant was repeated two more times.
Negative and positive fractions were centrifuged at 490×g for 5 minutes at 20° C. with acceleration of 9, deceleration of 9, and resuspended in DMEM (Gibco) and 10% Heat Inactivated Fetal Bovine Serum (Atlanta Bio) and Penicillin/Streptomycin. Cells were counted and centrifuged again at 490× g for 5 minutes at 20° C. with acceleration of 9, deceleration of 9. After centrifugation, cell were resuspended in DMEM (Gibco) and 10% Heat Inactivated Fetal Bovine Serum (Atlanta Bio) and Penicillin/Streptomycin containing 500 U/mL […] and plated at 1-2×10^6 cells/mL on 10 cm tissue culture plates. Cells were kept in 37° C., 5% CO2 in between feedings/harvest.
Cells were fed every 3-4 days by removing media and unattached cells, centrifuging at 490× g for 5 minutes at 20° C. with acceleration of 9, deceleration of 9, and resuspending in fresh DMEM (Gibco) and 10% Heat Inactivated Fetal Bovine Serum (Atlanta Bio) and Penicillin/Streptomycin containing GM-CSF. Resuspended cells were seeded back onto 10 cm tissue culture plates and incubated at 37° C., 5% CO2. Differentiated macrophages were used for subsequent experiments.
Primary human PMBC derived macrophages were seeded on day 0 at 3.0E4 cells per well in 96-well microplates (ThermoFisher) in Dulbecco's Modified Eagle Medium (DMEM) (Gibco) supplemented with penicillin-streptomycin (Hyclone) and 10% heat inactivated fetal bovine serum (HI-FBS) (Atlanta Bio) and incubated overnight at 37° C., 5% CO2. On day 1, cells were washed once with 150 uL per well DPBS (Gibco) and treated with 75 uL of: • a. […]
A general note: ELISA stands for enzyme-linked immunosorbent assay.

Turning to `CC[C@H](C)[C@H](N)C(=O)O` [Isoleucine, L-Isoleucine], the “IL-6 Measurements Mean” value is listed as 0 (Donor 1, Conc. 66 μM (baseline)); 25.98 (Donor 1, Conc. 1328 μM); −15.8843 (Donor 1, Conc. 3320 μM); −218.332 (Donor 1, Conc. 6639 μM); 0 (Donor 2, Conc. 66 μM (baseline)); −2.318 (Donor 2, Conc. 1328 μM). The “IL-6 Measurements Mean” value runs as follows: (Donor 2, Conc. 3320 μM) 2.305; (Donor 2, Conc. 6639 μM) −1.774; (Donor 3, Conc. 66 μM) −6.69; (Donor 3, Conc. 1328 μM) −28.9897; (Donor 3, Conc. 3320 μM) 0; (Donor 3, Conc. 6639 μM) −16.3663.

The values above are taken from patent publication US20210260010A1, “COMPOSITIONS AND METHODS FOR THE REDUCTION OR TREATMENT OF INFLAMMATION” (AXCELLA HEALTH INC., priority 2018, published 2021).
